Earlier results in patent US20030230530A1, “Process for the preparation of a combination of Famotidine Polymorphs A and B” (M/S. TONIRA PHARMA LIMITED, priority 2002, published 2003).

Legend:
[1] = background statement, comparison of Polymorph A and B
[2] = background statement, comparison of Polymorph A and B; remark: listed apart in the source

stability of the polymorph [1]	dissolution properties [2]	Compound
more stable	low dissolution properties	N=C(N)Nc1nc(CSCCC(=N)NS(N)(=O)=O)cs1 [Polymorph A, N-Sulfamyl-3-(2-guanidinothiazole-4-yl-methylthio) proionamidine]
metastable	higher dissolution properties	N=C(N)Nc1nc(CSCCC(=N)NS(N)(=O)=O)cs1 [Polymorph B, N-Sulfamyl-3-(2-guanidinothiazole-4-yl-methylthio) proionamidine]
